Values joined by “and” are separate entries in the source; they are usually repeats but may differ in a detail not shown here. Equal entries are not always repeated. No end group written: not given here.
T1: interaction between FVIII light chain and LRP cluster II (Homo sapiens, UniProt Q07954)
T1 construct: Recombinant LRP clusters II or IV (1 pmol/well) were adsorbed onto microtiter wells; made in house; host or cells: LRP cluster II: BHK cells; FVIII light chain: plasma-derived
T1 sequence (Q07954 803-1182): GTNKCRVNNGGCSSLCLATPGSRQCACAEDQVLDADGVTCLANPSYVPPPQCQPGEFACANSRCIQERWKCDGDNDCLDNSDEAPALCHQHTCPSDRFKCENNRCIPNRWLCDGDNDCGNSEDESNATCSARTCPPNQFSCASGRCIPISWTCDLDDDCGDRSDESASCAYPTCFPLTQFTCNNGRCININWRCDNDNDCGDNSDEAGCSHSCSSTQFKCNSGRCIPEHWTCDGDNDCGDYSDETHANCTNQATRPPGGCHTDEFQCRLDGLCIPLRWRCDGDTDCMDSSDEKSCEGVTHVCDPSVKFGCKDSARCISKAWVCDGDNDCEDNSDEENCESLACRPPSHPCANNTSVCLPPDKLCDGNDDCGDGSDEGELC

T2: interaction between FVIII light chain and LRP cluster IV (Homo sapiens, UniProt P00451)
T2 construct: made in house; host or cells: LRP cluster IV: BHK cells; FVIII light chain: plasma-derived
T2 sequence (P00451 1668-2351 limits assumed): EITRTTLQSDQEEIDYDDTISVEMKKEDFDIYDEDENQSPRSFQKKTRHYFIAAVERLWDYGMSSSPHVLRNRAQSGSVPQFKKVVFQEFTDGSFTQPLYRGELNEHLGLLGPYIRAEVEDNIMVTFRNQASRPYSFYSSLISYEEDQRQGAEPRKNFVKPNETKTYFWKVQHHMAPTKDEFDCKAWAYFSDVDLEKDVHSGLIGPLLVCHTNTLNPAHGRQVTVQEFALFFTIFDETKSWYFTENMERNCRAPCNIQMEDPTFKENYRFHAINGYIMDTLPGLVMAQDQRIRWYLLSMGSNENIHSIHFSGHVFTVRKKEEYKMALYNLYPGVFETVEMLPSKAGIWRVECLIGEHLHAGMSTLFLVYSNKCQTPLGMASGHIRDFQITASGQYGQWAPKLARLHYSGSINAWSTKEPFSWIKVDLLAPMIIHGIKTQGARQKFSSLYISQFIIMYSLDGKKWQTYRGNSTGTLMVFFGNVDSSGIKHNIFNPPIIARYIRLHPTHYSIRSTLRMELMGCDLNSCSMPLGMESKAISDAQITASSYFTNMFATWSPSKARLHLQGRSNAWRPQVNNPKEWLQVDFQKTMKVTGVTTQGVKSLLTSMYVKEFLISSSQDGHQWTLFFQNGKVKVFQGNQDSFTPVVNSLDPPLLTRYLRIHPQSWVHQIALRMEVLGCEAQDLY

T3: interaction between FVIII light chain and LRP cluster II (Homo sapiens, UniProt P00451)
T3 construct: Recombinant LRP clusters II or IV (1 pmol/well) were adsorbed onto microtiter wells; made in house; host or cells: LRP cluster II: BHK cells; FVIII light chain: plasma-derived
T3 sequence (P00451 1668-2351): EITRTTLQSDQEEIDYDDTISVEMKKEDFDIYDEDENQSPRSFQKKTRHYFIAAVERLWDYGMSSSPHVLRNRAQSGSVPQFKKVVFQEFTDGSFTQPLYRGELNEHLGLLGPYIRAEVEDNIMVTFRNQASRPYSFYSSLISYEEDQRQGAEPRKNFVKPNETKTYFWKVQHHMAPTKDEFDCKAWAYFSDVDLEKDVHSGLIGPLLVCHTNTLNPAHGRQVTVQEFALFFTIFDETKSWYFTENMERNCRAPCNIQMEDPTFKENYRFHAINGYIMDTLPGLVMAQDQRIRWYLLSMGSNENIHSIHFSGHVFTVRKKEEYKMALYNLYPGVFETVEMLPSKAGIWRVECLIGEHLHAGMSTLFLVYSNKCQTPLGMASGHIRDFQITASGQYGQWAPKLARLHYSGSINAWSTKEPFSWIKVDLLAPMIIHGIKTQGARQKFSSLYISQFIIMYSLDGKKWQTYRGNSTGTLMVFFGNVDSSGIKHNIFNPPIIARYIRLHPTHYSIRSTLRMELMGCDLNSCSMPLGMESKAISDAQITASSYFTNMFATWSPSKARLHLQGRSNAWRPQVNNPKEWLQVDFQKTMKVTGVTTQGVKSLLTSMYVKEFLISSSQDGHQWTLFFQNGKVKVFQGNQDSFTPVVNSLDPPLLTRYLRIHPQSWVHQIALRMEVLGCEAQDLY


Tests used:
[1] = biological target: T1, interaction between FVIII light chain and LRP cluster II; assay: Solid-phase competition: FVIII light chain binding to immobilized LRP cluster II; conditions: FVIII light chain 25 nM; peptide 0-1 mM; 2 h at 37° C
Description: (§1) FIG. 4. Effect of scFv antibody fragments on the interaction between FVIII light chain and LRP. A, FVIII light chain (LCh) (25 nM) was incubated with immobilized LRP cluster II (1 pmol/well) in a volume of 50 μl in 150 mM NaCl, 5 mM CaCl2, 1% (w/v) HSA, 0.1% Tween® 20, and 50 mM Tris (pH 7.4) in the presence of various concentrations (0-100 nM) of scFv KM41 (closed circles) or scFv KM36 (open circles) for 2 h at 37° C. After washing with the same buffer, bound FVIII light chain was quantified by incubation with peroxidase-conjugated anti-FVIII antibody CLB-CAg 12 for 15 min at 37° C. Residual binding is expressed as the percentage of binding in the absence of competitor and is corrected for nonspecific binding (less than 5% relative to binding to LRP cluster II-immobilized wells). Data represent the mean±S.D. of three experiments. B, FVIII light chain (50 nM) was incubated with immobilized LRP (16 fmol/mm^2) as described in the legend of FIG. 1. Binding was assessed in the absence (curve 1) or in the presence of increasing concentrations of scFv KM41 (20, 60, 300, 500 nM, curves 2-5, respectively). Complexes were allowed to form for 30 min before SPR analysis.
(§2) FIG. 5. Effect of scFv KM33 on the interaction between FVIII light chain and LRP. FVIII light chain (LCh) (25 nM) was incubated with immobilized LRP cluster II (1 pmol/well) in a volume of 50 μl in 150 mM NaCl, 5 mM CaCl2, 1% (w/v) HSA, 0.1% Tween® 20, and 50 mM Tris (pH 7.4) in the presence of various concentrations (0-30 nM) of scFv KM36 (open circles) or scFv KM33 (closed circles) for 2 h at 37° C. After washing with the same buffer, bound FVIII Light chain was quantified by incubation with peroxidase-conjugated anti-FVIII antibody CLB-CAg 12 for 15 min at 37° C. Residual binding is expressed as the percentage of binding in the absence of competitor and is corrected for nonspecific binding (less than 5% relative to binding to cluster-coated wells). Data represent the mean±S.D. of three experiments.
(§3) Recombinant LRP clusters II or IV (1 pmol/well) were adsorbed onto microtiter wells in 50 mM NaHCO3 (pH 9.8) in a volume of 50 μl for 16 h at 4° C. Wells were blocked with 2% (w/v) HSA, 150 mM NaCl, 5 mM CaCl2, and 50 mM Tris (pH 7.4) in a volume of 200 μl for 1 h at 37° C. After three rapid washes (less than 5 seconds each) with 150 mM NaCl, 5 mM CaCl2, 0.1% (v/v) Tween® 20, and 50 mM Tris (pH 7.4), FVIII light chain or its derivatives were incubated at various concentrations in a volume of 50 μl in a buffer containing 150 mM NaCl, 5 mM CaCl2, 1% (w/v) HSA, 0.1% (v/v) Tween® 20, and 50 mM Tris (pH 7.4) for 2 h. at 37° C. Bound ligand was detected by incubating with peroxidase-conjugated monoclonal antibody CLB-CAg 12 in the same buffer for 15 min at 37° C. […] In competition experiments, FVIII light chain (25 nM) was incubated with wells containing immobilized LRP clusters, either in the presence or absence of serial dilutions of competitor in a volume of 50 μl for 2 h at 37° C. Residual FVIII binding was detected as described above. Data were corrected for binding to empty microtiter wells, which was less than 5% relative to binding to wells containing immobilized LRP clusters.
(§4) (Note to Table II: Effect of FVIII a3-A3-C1 fragment derived synthetic peptides on the interaction between FVIII light chain and LRP cluster II. FVIII light chain (25 nM) was incubated with immobilized LRP cluster II (1 pmol/well) in a volume of 50 μl in 150 mM NaCl, 5 mM CaCl2, 1% (w/v) HSA, 0.1% Tween® 20, and 50 mM Tris (pH 7.4) in the presence or absence of various concentrations of synthetic peptide (0-1 mM) for 2 h at 37° C. After washing with the same buffer, bound FVIII light chain was quantified by incubation with peroxidase-conjugated anti-FVIII antibody CLB-CAg 12 for 15 min at 37° C. Half-maximum inhibition constants (IC50) represent the mean values±S.D. of three experiments.)

FVIIIa-FIXa complex = FVIIIa-FIXa complex (Homo sapiens, UniProt P00451+P00740); conditions: by interfering with the assembly of the FVIIIa-FIXa complex; cited from earlier work
Sequence of FVIIIa-FIXa complex (P00740 47-191 limits assumed, one chain of several): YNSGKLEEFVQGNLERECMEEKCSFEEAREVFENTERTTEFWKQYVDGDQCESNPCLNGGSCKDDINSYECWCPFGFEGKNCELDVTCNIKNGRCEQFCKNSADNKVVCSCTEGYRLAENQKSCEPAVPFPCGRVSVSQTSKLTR

[2] = biological target: T2, interaction between FVIII light chain and LRP cluster IV; assay: Solid-phase competition: FVIII light chain binding to immobilized LRP cluster IV; conditions: FVIII light chain 25 nM; competitor 0-600 nM
Description: FIG. 2. Binding of FVIII light chain to recombinant LRP fragments. FVIII light chain (LCh) (25 nM) was incubated with immobilized LRP cluster IV (1 pmol/well) in a volume of 50 μl in 150 mM NaCl, 5 mM CaCl2, 1% (w/v) HSA, 0.1% Tween® 20, and 50 mM Tris (pH 7.4) in the presence or absence of various concentrations of recombinant LRP cluster II (0-600 nM) for 2 h at 37° C. After washing with the same buffer, bound FVIII light chain was quantified by incubation with peroxidase-conjugated anti-FVIII antibody CLB-CAg 12 for 15 min at 37° C. Residual binding is expressed as the percentage of binding in the absence of competitor and is corrected for nonspecific binding (less than 5% relative to binding to LRP cluster II-immobilized wells). Inset, serial dilutions of FVIII light chain were incubated with immobilized LRP cluster II (1 pmol/well) in a volume of 50 μl in 150 mM NaCl, 5 mM CaCl2, 1% (w/v) HSA, 0.1% Tween® 20, and 50 mM Tris (pH 7.4) for 2 h at 37° C. After washing with the same buffer, bound FVIII light chain was quantfied as described above. […]
Recombinant LRP clusters II or IV (1 pmol/well) were adsorbed onto microtiter wells in 50 mM NaHCO3 (pH 9.8) in a volume of 50 μl for 16 h at 4° C. […] Bound ligand was detected by incubating with peroxidase-conjugated monoclonal antibody CLB-CAg 12 in the same buffer for 15 min at 37° C. […] Residual FVIII binding was detected as described above. […]

[3] = Factor VIII clearance and recovery in vWF knock out mice; type: in vivo; conditions: for Factor VIII activity in plasma: Factor VIII 200 U/kg
Description: FIG. 8. According to Example II, mice were injected either with human FVIII alone, human FVIII in the presence of a control scFv-fragment (KM38) and with human FVIII in the presence of a scFv-fragment (KM33) specifically interfering with the putative FVIII-LRP interaction.
Experimental procedure: vWF knock out mice (decreased endogenous Factor VIII, 20% Factor VIII compared to healthy animals) were treated with human recombinant Factor VIII (Recombinate™; 200 U/kg) and recombinant scFv (KM33) in excess. (30 nM versus 3 nM Factor VIII in plasma). In control experiments, Factor VIII and a control scFv fragment (KM38) binding to a different domain as the proposed LRP binding
site on the Factor VIII molecule were used in the same concentrations. Infusion of recombinant FVIII without any addition was used to monitor the clearance of Factor VIII in this model system.
At defined time points (15, 30, 60, 120 and 240 minutes) after injection, blood was collected by heart puncture, plasma was subsequently isolated, shock frozen and analyzed for Factor VIII activity. Ten mice were used at each time point, plasma was diluted to 3 concentrations (1:20, 1:60 and 1:100) and analyzed in duplicate. Factor VIII levels were quantified by performing a quantitative ELISA.

[4] = biological target: T3, interaction between FVIII light chain and LRP cluster II; assay: Solid-phase competition: FVIII light chain binding to immobilized LRP cluster II; conditions: FVIII light chain 25 nM
Description: as §1, §2, §3, §4

| IC50 [1] | Molecule | Inhibition of FVIII procoagulant activity (FVIIIa-FIXa complex) | other results |
| --- | --- | --- | --- |
| > 1000 µM | WDYGMSSSPHVLRNR [Residues 1707-1721] | – | – |
| > 1000 µM | TVRKKEEYK [Residues 1964-1972] | – | – |
| > 1000 µM | EDPTFKENYRFH [Residues 1908-1919] | – | – |
| > 1000 µM | KLARLHYSG [Residues 2049-2057] | – | – |
| ~1.9 µM and 1.9 µM | KNFVKPNETKTYFWK [Residues 1804-1818] | effective inhibitors | – |
| > 1000 µM | TENMERNCRA [Residues 1892-1901] | – | – |
| > 1000 µM | HMAPTKDEFDCKA [Residues 1822-1834] | – | – |
| ~16.8 µM and 16.8 µM | YFWKVQHHMAPTKDEFDCKA [Residues 1815-1834] | effective inhibitors | – |
| – | LRP cluster II: recombinant LRP ligand binding cluster II expressed in BHK cells | – | Inhibition of FVIII light chain binding to immobilized LRP cluster IV [2]: dose-dependent inhibition |
| – | scFv KM33: scFv antibody fragment against FVIII light chain; does not require A3 domain region 1778-1818; LRP blocking (protein) scFv: EVQLVESGGGVVQPGRSLRLSCVDSGLTFSSYGMHWVRQAPGAGLEWVAVISYDGNDKYYADSVKGRFAISRDNAKNTLYLQMNSLTIEDTAVYYCAKDLIESNIAEAFWGQGTLVTVSSGGGGSGGGGSGGGGSDIQMTQSPSSLSASVGDTVTIACRASRDIRNDLAWYQQKPGKAPKLLIYATSRLQSGVPSRFSGSGSFTDFTLTINSLQPDDSATYYCLQDSDYPLTFGGGTKVDIKRAAAEQKLISEEDLNGAAHHHHHH | effective inhibitors | Factor VIII recovery ([3]; 15 minutes after injection): 30.4%; Factor VIII activity in plasma ([3]; 15 minutes after injection): about 0.8 U/mL; Factor VIII recovery ([3]; 30 minutes after injection): 20%; Factor VIII activity in plasma ([3]; 30 minutes after injection): 0.5 U/mL; Factor VIII recovery ([3]; 60 minutes after injection): 14%; Factor VIII activity in plasma ([3]; 60 minutes after injection): 0.35 U/mL; FVIII activity levels ([3]; four hours after injection): reached the background activity of mouse Factor VIII; Effect on binding of FVIII light chain to immobilized LRP cluster II [4]: effectively inhibited |
